The assay concerns mutated kRAS/kRAS x MS1096 fly (human kRAS G12V expressed in the wing). Description: Screening for drugs that reverse the wing phenotype of the mutated kRAS/kRAS x MS1096 fly. Conditions: for rescue from the crumpled/kringled wing phenotype: 10 μM test article in fly food, embryos to adults, 25° C., 14 days, FIG. 8. The format is in vivo, Drosophila. As to the method: Male mutated kRAS/kRAS flies were bred overnight with female MS1096/GAL4 flies in a fly condo^2 with a grape agar plate floor. The resulting embryos were gently dislodged from the grape agar plate using a squirt bottle containing 0.7% NaCl, 0.03% Triton X-100 In distilled water. The embryos were counted and then dissolved in a solution containing 14.4% sucrose, 0.7% NaCl and 0.05% Triton to give a concentration of 15 embryos/10 μL of solution. ^2 Sullivan W, Ashburner M, Hawley, S R, Drosophila Protocols 2000, Cold Spring Harbor Laboratory Press, pp 541-551.
The test article, 1-benzyl-2-phenyl-1H-benzo[d]imidazole which is a deltarasin analog with activity againsy RAS signaling,^1 was dissolved in DMSO to give a concentration of 10 mM. The deltarasin analog inhibitor was synthesized at the Tosk facility. Four μL of this solution, 100 μL of the embryo solution (150 embryos), ½ teaspoon blue fly food (North Carolina, catalogue number 173216) and 4 ml of water were combined in a vial (VWR, catalogue number 89092-720) and capped (VWR, catalogue number 89168-886). Using the recipe provided above, the final concentration of test article in the mixture was 10 μM.
The vials were placed in a 25° C. incubator for 14 days after which they. were examined for the percentage of flies with crumpled/kringled wings. […] The goal for screening chemicals for anti-kRAS activity is to achieve in the kRAS mutant fly the rescue from the crumpled/kringled wing phenotype achieved with the deltarasin analog.

Setting [1] is: flies rescued by treatment with a test article, compared with control and kRAS mutant flies.

`c1ccc(Cn2c(-c3ccccc3)nc3ccccc32)cc1` [test article, 1-benzyl-2-phenyl-1H-benzo[d]imidazole]: the “rescue from the crumpled/kringled wing phenotype” value is given as “significantly less crumpled/kringled although still non-functional”. For the setting “listed as deltarasin analog”, the “rescue from the crumpled/kringled wing phenotype” value is listed as “rescued”. The “typical appearance of wings: vein-free region (Rescued)” value (compared with the same regions in kRAS mutant flies) is given as “Vein-free region is considerably”. Moreover, under setting [1], the “ability to take flight (Rescued)” value is recorded as “Unable to take flight”; the “typical appearance of wings: position relative to fly body in idle state (Rescued)” value is given as “Wings tend to be parallel to the fly”; the “typical appearance of wings: size and shape (Rescued)” value was “Medium, semi-flat and less crinkled”; the “typical appearance of wings: transparency (Rescued)” value is on record as “Slightly translucent wings”. Also, the “typical appearance of wings: wing veins (Rescued)” value under setting [1] was “Slightly aberrant wing “veins.””.

(Values after US10660318B2, “Non-mammalian RAS transgenic animal model” (Tosk, Inc., priority 2013, dated 2020).)
